Reference: patent US6319910A, “Method for inhibiting cyclooxygenase-2 and tumor necrosis factor alpha” (Hospital for Joint Diseases, priority 1998, dated 2001)

How the values were obtained:
COX-2 [1] = target: T1, COX-2 (Mus musculus, UniProt Q05769); assay: COX-2 specific activity in cell-free extracts of LPS-stimulated RAW 264.7 cells (PGE2 by RIA); type: biochemical, murine
T1 construct: using total unfractionated cell extracts; endogenous in cells; host or cells: RAW 264.7 cells, LPS-induced; cell-free extract
T1 sequence (Q05769 18-604): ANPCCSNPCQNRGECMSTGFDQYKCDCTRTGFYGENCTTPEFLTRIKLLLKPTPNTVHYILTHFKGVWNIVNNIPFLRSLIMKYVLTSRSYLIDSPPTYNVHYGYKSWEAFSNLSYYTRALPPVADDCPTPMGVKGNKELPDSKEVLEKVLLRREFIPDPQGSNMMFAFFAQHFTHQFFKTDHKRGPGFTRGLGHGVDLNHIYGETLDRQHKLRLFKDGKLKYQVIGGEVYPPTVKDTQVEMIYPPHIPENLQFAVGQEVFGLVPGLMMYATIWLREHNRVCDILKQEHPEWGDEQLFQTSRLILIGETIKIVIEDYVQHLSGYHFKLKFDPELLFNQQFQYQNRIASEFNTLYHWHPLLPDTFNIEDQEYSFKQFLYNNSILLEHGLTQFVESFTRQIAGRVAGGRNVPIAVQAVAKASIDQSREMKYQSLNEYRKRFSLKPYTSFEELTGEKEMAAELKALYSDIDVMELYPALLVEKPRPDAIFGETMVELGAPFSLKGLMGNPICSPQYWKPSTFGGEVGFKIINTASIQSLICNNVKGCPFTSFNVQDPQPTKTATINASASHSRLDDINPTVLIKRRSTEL
Experimental: Raw 264.7 cells were stimulated with LPS and cell-free extracts were prepared as follows. RAW 264.7 cells were induced with LPS (100 ng/ml) in the presence or absence of tetracyclines or hydrocortisone for 14-20 hours. Following induction, the cells were pelleted at 4° C. and resuspended in Tris buffer: 10 mM, pH 7.4 containing 10 μg/ml each of chymostatin, antipain, leupeptin and pepstatin, 1 mM DDT and 1 mM PMSF. Cells were lysed in a Polytron PA 1200 homogenizer (Kinematica AG, Switzerland) with the cocktail of protease inhibitors after 3 cycles of rapid freeze-thawing. The lysate was centrifuged at 18,000 at 4° C. in an eppendorf centrifuge, and the resulting supernatant was used as cell-free extracts. The protein was measured by BCA assay reagent (Pierce, Rockford, Ill.) using BSA as standard. […] The specific enzyme activity was defined as ng of PGE2 released/mg protein/37° C. for 20 minutes.
RAW 264.7 cells were stimulated with 1 μg/ml of LPS for 16 hours and cell-free extracts were prepared as described above. The extracts were incubated with different modulators for 20 minutes at 37° C. before adding the substrate to initiate the enzyme reaction, which was terminated after 30 minutes by heat inactivation. The data represent one of the two experiments, the PGE2 analysis from each sample was done in triplicates n=3. The p value is a comparison between control and experimentals.

COX-2 [2] = assay: COX-2 expression in cells/cartilage (general statement); type: cell-based; conditions: words
NOS = conditions: previously shown; words; cited from earlier work

In the case of NC(=O)C1=C(O)C2(O)C(=O)C3=C(O)c4c(O)cccc4CC3CC2CC1=O (stereo not shown) [CMT-3, 6-demethyl-6-deoxy-4-dedimethylaminotetracycline], the “Effect on specific activity of COX-2” value (COX-2 [1]; CMT-3 27 μM, CMT-8 27 μM, aspirin 56 μM, indomethacin 28 μM, words) is reported as “significantly inhibited the specific activity of COX-2”, the “COX-2 Specific Activity” value (COX-2 [1]; Table 3, cell-free extracts, 10 μg (aspirin amount not given)) is reported as 2.8 ± 4.0 PGE2 ng/mg protein and the “Effect on COX-2 expression” value (COX-2 [2]) is reported as “inhibits COX-2 expression and PGE2 production”. For the same compound, the NOS activity (NOS) was “inhibit NOS activity”.
